From publication doi:10.1101/2021.04.08.439011v1 (biorxiv, 2021)

Key:
ABL1(M351T) = ABL1(M351T) (Homo sapiens, UniProt P00519, M351T); conditions: phosphorylated; 0.1 µM; binder
ASK2 = ASK2 (Homo sapiens, UniProt O95382); conditions: 0.1 µM; binder
OSR1 = OSR1 (Homo sapiens, UniProt O95747); conditions: 0.1 µM; binder
BLK = BLK (Homo sapiens, UniProt P51451); conditions: 0.1 µM; binder
ULK1 = ULK1 (Homo sapiens, UniProt O75385); conditions: 0.1 µM; binder
LATS2 = LATS2 (Homo sapiens, UniProt Q9NRM7); conditions: 0.1 µM; binder
WEE2 = WEE2 (Homo sapiens, UniProt P0C1S8); conditions: 0.1 µM; binder
RAF1 = RAF1 (Homo sapiens, UniProt P04049); conditions: 0.1 µM; binder
BMPR2 = BMPR2 (Homo sapiens, UniProt Q13873); conditions: 0.1 µM; binder
PYK2 = PYK2 (Homo sapiens, UniProt Q14289); conditions: 0.1 µM; binder
p38-gamma = p38-gamma (Homo sapiens, UniProt P53778); conditions: 0.1 µM; binder
ERK5 = ERK5 (Homo sapiens, UniProt Q13164); conditions: 0.1 µM; binder
PIK3CA(H1047L) = PIK3CA(H1047L) (Homo sapiens, UniProt P42336, H1047L); conditions: 0.1 µM; binder
RIOK2 = RIOK2 (Homo sapiens, UniProt Q9BVS4); conditions: 0.1 µM; binder
FGFR4 = FGFR4 (Homo sapiens, UniProt P22455); conditions: 0.1 µM; binder
MERTK = MERTK (Homo sapiens, UniProt Q12866); conditions: 0.1 µM; binder
AMPK-alpha2 = AMPK-alpha2 (Homo sapiens, UniProt P54646); conditions: 0.1 µM; binder
MAP3K1 = MAP3K1 (Homo sapiens, UniProt Q13233); conditions: 0.1 µM; binder
PIM1 = PIM1 (Homo sapiens, UniProt P11309); conditions: 0.1 µM; binder
MAPKAPK5 = MAPKAPK5 (Homo sapiens, UniProt Q8IW41); conditions: 0.1 µM; binder
MAP4K5 = MAP4K5 (Homo sapiens, UniProt Q9Y4K4); conditions: 0.1 µM; binder
PIK3C2B = PIK3C2B (Homo sapiens, UniProt O00750); conditions: 0.1 µM; binder
PLK4 = PLK4 (Homo sapiens, UniProt O00444); conditions: 0.1 µM; binder
FYN = FYN (Homo sapiens, UniProt P06241); conditions: 0.1 µM; binder
IKK-alpha = IKK-alpha (Homo sapiens, UniProt O15111); conditions: 0.1 µM; binder
EGFR(T790M) = EGFR(T790M) (Homo sapiens, UniProt P00533, T790M); conditions: 0.1 µM; binder
PNCK = PNCK (Homo sapiens, UniProt Q6P2M8); conditions: 0.1 µM; binder
ALK(C1156Y) = ALK(C1156Y) (Homo sapiens, UniProt Q9UM73, C1156Y); conditions: 0.1 µM; binder
NEK1 = NEK1 (Homo sapiens, UniProt Q96PY6); conditions: 0.1 µM; binder
EIF2AK1 = EIF2AK1 (Homo sapiens, UniProt Q9BQI3); conditions: 0.1 µM; binder
ULK2 = ULK2 (Homo sapiens, UniProt Q8IYT8); conditions: 0.1 µM; binder

Sequence of FYN (P06241 whole entry): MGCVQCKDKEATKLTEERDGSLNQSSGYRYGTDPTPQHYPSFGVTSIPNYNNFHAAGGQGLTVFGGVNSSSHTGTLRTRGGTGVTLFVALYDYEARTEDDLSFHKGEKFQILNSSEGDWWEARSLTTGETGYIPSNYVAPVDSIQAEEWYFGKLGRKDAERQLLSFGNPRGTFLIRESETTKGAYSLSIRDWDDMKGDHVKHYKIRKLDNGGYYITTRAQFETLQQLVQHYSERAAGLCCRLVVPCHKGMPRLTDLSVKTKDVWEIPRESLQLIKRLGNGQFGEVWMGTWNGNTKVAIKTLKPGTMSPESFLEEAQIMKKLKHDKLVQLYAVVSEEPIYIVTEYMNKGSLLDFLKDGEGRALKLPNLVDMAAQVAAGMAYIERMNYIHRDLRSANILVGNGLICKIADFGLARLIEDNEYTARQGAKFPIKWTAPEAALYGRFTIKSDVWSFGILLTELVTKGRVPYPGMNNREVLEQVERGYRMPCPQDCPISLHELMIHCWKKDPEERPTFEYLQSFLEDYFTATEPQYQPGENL
Sequence of p38-gamma (P53778 whole entry): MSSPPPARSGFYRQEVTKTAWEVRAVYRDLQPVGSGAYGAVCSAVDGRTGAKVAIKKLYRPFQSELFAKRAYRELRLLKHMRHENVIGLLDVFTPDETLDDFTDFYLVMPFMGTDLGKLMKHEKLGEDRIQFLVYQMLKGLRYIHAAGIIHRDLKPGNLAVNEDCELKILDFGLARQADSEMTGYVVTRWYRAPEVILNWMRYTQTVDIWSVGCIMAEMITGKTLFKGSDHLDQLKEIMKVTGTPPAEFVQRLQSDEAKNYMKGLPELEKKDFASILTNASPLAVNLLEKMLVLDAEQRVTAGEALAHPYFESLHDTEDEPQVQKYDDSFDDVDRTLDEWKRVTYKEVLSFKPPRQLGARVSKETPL
Sequence of MAP3K1 (Q13233 whole entry): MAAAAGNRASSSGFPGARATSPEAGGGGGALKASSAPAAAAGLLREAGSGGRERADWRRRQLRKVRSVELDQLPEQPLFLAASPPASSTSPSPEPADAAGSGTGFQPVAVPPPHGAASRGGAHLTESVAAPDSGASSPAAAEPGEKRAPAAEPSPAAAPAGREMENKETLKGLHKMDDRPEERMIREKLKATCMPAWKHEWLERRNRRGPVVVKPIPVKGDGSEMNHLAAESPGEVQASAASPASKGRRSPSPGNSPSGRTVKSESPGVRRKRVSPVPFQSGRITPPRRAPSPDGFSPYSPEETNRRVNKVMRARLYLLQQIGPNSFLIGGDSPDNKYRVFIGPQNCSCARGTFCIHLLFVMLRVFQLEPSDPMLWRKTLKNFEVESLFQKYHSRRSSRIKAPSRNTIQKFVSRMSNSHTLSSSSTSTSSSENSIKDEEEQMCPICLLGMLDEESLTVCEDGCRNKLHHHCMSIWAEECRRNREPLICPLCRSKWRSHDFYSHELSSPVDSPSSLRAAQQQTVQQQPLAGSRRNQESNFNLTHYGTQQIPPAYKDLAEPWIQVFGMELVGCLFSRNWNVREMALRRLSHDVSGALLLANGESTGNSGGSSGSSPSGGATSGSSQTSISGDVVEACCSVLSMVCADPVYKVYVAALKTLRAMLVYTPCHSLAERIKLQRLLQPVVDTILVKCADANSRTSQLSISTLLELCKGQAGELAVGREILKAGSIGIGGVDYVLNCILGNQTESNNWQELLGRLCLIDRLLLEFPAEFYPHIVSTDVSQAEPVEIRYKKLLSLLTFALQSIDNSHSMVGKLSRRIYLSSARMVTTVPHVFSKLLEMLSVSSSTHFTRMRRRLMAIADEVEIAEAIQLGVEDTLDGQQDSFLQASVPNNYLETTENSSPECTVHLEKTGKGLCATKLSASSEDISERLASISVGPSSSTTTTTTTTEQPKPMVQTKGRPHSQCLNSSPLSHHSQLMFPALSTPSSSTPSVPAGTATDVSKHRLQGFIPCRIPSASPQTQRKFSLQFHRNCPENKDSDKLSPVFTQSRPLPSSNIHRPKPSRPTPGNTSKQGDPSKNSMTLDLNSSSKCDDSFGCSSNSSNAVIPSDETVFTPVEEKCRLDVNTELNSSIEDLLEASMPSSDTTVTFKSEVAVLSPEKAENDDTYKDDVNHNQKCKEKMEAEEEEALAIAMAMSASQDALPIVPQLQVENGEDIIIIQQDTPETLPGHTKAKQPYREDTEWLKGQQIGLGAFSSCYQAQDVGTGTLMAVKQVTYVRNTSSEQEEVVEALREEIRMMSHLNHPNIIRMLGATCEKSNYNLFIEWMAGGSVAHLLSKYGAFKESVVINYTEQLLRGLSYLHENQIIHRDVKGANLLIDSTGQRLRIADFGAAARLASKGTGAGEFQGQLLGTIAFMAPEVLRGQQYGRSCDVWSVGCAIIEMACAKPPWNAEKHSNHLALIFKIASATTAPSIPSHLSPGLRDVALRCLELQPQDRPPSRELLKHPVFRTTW
Sequence of RIOK2 (Q9BVS4 whole entry): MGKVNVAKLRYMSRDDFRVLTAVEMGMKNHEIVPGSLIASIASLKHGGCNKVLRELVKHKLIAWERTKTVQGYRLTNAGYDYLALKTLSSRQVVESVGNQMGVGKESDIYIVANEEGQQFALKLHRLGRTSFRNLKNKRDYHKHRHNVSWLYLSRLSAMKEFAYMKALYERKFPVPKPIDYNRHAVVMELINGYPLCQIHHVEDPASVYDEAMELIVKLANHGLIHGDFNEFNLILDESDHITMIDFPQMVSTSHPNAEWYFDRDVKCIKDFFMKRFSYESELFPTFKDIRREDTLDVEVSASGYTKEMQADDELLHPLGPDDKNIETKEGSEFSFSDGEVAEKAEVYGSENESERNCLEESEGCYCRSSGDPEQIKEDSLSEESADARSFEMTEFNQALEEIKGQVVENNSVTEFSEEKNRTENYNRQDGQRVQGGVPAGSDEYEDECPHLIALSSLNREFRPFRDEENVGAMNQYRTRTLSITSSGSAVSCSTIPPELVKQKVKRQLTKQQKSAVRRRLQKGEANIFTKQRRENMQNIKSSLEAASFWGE
Sequence of BLK (P51451 whole entry): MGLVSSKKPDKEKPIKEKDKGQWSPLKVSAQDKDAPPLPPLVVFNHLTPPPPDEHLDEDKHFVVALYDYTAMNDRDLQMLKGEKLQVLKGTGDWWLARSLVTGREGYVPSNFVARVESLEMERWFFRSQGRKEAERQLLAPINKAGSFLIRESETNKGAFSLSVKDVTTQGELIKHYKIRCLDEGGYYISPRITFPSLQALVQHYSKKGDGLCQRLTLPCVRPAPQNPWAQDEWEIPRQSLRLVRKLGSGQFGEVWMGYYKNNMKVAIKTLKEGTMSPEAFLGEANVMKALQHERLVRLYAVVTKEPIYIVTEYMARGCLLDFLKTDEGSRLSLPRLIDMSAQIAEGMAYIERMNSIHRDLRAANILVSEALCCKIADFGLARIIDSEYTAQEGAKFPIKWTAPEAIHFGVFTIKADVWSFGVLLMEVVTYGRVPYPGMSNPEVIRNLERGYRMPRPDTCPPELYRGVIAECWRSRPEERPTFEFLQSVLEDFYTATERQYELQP
Sequence of RAF1 (P04049 whole entry): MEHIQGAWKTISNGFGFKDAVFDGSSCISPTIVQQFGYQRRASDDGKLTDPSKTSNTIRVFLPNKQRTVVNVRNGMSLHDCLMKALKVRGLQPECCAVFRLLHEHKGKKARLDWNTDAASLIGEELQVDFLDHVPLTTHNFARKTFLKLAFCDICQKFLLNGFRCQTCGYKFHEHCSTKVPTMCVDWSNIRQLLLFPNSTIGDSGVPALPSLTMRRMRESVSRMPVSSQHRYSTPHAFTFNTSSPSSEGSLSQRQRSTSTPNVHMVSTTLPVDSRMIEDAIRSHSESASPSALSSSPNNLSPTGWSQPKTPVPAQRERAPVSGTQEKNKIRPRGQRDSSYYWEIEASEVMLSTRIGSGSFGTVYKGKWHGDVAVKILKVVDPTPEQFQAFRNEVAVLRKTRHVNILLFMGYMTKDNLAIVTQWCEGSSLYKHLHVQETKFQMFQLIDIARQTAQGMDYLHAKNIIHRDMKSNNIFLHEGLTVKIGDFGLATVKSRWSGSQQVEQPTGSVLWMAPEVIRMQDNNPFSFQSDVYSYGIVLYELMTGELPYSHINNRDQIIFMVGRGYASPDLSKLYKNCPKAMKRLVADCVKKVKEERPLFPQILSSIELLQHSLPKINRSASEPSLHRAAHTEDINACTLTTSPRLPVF
Sequence of PIM1 (P11309 whole entry): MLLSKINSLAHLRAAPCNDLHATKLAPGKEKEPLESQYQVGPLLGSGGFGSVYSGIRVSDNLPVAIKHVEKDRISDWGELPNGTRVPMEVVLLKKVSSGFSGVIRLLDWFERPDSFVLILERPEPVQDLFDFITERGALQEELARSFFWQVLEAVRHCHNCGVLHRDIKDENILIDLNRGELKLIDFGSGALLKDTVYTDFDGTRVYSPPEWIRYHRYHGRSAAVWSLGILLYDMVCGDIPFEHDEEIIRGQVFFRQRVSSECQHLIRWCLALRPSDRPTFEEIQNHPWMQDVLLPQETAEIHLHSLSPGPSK
Sequence of AMPK-alpha2 (P54646 whole entry): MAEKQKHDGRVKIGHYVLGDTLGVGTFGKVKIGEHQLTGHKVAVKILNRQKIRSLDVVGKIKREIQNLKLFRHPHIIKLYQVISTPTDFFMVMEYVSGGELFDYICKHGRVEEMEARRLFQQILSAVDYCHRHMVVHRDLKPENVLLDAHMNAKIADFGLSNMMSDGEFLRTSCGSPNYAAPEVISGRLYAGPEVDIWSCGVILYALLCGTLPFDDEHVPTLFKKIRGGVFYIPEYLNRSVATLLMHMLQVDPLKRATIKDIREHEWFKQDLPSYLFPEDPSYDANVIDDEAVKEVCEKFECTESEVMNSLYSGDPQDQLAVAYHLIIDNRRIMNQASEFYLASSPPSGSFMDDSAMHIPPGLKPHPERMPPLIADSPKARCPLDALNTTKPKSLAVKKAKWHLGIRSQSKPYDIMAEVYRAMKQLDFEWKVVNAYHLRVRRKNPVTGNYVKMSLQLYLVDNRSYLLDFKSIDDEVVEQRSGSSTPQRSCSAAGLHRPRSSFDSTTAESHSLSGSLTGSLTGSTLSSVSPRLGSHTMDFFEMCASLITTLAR

Q: With `CNc1ncc2cc(-c3ccc(-c4cccc(C)n4)cc3Cl)c(=O)n(C[C@H]3OC[C@H](N)CO3)c2n1` [compound 6, G-5555] as the compound, how does the “Percent Control” value (ABL1(M351T)) read?
A: 100%

Q: What about the “Percent Control” value (ASK2) of the same compound?
A: 100%

Q: And the “Percent Control” value (OSR1)?
A: 99%

Q: And the “Percent Control” value (BLK)?
A: 100%

Q: What about the “Percent Control” value (ULK1) of the same compound?
A: 100%

Q: And the “Percent Control” value (LATS2)?
A: 58%

Q: What about the “Percent Control” value (WEE2) of the same compound?
A: 100%

Q: What about the “Percent Control” value (RAF1) of the same compound?
A: 100%

Q: What about the “Percent Control” value (BMPR2) of the same compound?
A: 100%

Q: What about the “Percent Control” value (PYK2) of the same compound?
A: 100%

Q: And the “Percent Control” value (p38-gamma)?
A: 100%

Q: What about the “Percent Control” value (ERK5) of the same compound?
A: 98%

Q: And the “Percent Control” value (PIK3CA(H1047L))?
A: 100%

Q: What about the “Percent Control” value (RIOK2) of the same compound?
A: 100%

Q: What about the “Percent Control” value (FGFR4) of the same compound?
A: 100%

Q: What about the “Percent Control” value (MERTK) of the same compound?
A: 95%

Q: And the “Percent Control” value (AMPK-alpha2)?
A: 93%

Q: And the “Percent Control” value (MAP3K1)?
A: 81%

Q: And the “Percent Control” value (PIM1)?
A: 100%

Q: And the “Percent Control” value (MAPKAPK5)?
A: 100%

Q: What about the “Percent Control” value (MAP4K5) of the same compound?
A: 18%

Q: What about the “Percent Control” value (PIK3C2B) of the same compound?
A: 88%

Q: And the “Percent Control” value (PLK4)?
A: 84%

Q: And the “Percent Control” value (FYN)?
A: 100%

Q: What about the “Percent Control” value (IKK-alpha) of the same compound?
A: 92%

Q: And the “Percent Control” value (EGFR(T790M))?
A: 100%

Q: And the “Percent Control” value (PNCK)?
A: 97%

Q: And the “Percent Control” value (ALK(C1156Y))?
A: 100%

Q: And the “Percent Control” value (NEK1)?
A: 100%

Q: And the “Percent Control” value (EIF2AK1)?
A: 97%

Q: What about the “Percent Control” value (ULK2) of the same compound?
A: 100%
